Reference: patent publication US20220363680A1, “PROCESSES FOR THE SYNTHESIS OF VALBENAZINE” (Neurocrine Biosciences, Inc., priority 2019, published 2022)

Assays:
[1] = Stability of standard and sample solutions (4 mg/mL) for the HPLC method; assay type: physicochemical; settings: 4 mg/mL in DI water:acetonitrile 50:50 v/v, ambient laboratory conditions
Method: Diluent (DI Water:Acetonitrile, 50:50, v/v).
Note: Standard solutions are stable for 4 days at ambient laboratory conditions.
Working Standard Solution (4 mg/mL of compound of Formula I).
Note: Sample solutions are stable for 4 days at ambient laboratory conditions.
Sample Solution (4 mg/mL of compound of Formula I).

[2] = Particle size distribution of manufacturing batches of the compound of Formula I; assay type: physicochemical; settings: crystalline Form I batches
Source text: Manufacturing batches of(2R,3R,11bR)-3-isobutyl-9,10-dimethoxy-2,3,4,6,7,11b-hexahydro-1H-pyrido[2,1-a]isoquinolin-2-yl (S)-2-amino-3-methylbutanoate di(4-methylbenzenesulfonate) (i.e., the compound of Formula I) have been prepared in a similar manner as described herein and have the following particle size distribution characterizations, as shown in Table 3.
Four separate batches of (2R,3R,11bR)-3-Isobutyl-9,10-dimethoxy-2,3,4,6,7,11b-hexahydro-1H-pyrido[2,1-a]isoquinolin-2-yl (S)-2-amino-3-methylbutanoate di(4-methylbenzenesulfonate) were manufactured in a similar manner as described herein (i.e., Example 1) in compliance with applicable cGMPs for GLP use. Certain data are shown below in Table 10 for Example 1, Step E (i.e., Batch 073) and the four batches (i.e., Batches 084, 085, 086, and 087).

[3] = Table 3, listed as Batch 073, di(4-methylbenzenesulfonate)
[4] = Table 3, listed as Batch 084, di(4-methylbenzenesulfonate)
[5] = Table 3, listed as Batch 085, di(4-methylbenzenesulfonate)
[6] = Table 3, listed as Batch 086, di(4-methylbenzenesulfonate)
[7] = Table 3, listed as Batch 087, di(4-methylbenzenesulfonate)
[8] = Table 10, listed as Batch 073, di(4-methylbenzenesulfonate)
[9] = Table 10, listed as Batch 084, di(4-methylbenzenesulfonate)
[10] = Table 10, listed as Batch 085, di(4-methylbenzenesulfonate)
[11] = Table 10, listed as Batch 086, di(4-methylbenzenesulfonate)
[12] = Table 10, listed as Batch 087, di(4-methylbenzenesulfonate)

## COc1cc2c(cc1OC)[C@H]1C[C@@H](OC(=O)[C@@H](N)C(C)C)[C@H](CC(C)C)CN1CC2 [Compound of Formula I, (2R,3R,11bR)-3-isobutyl-9,10-dimethoxy-2,3,4,6,7,11b-hexahydro-1H-pyrido[2,1-a]isoquinolin-2-yl (S)-2-amino-3-methylbutanoate di(4-methylbenzenesulfonate)]
[1]
  Time for which solutions are stable: 4 days
[2]; Table 3
  Particle size distribution, D10: 3 µm
[2]; [3]
  Particle size distribution, D50: 14 µm
  Particle size distribution, D90: 45 µm
[2]; [4]
  Particle size distribution, D50: 13 µm
  Particle size distribution, D90: 43 µm
[2]; [5]
  Particle size distribution, D50: 13 µm
  Particle size distribution, D90: 44 µm
[2]; [6]
  Particle size distribution, D50: 14 µm
  Particle size distribution, D90: 48 µm
[2]; [7]
  Particle size distribution, D50: 13 µm
  Particle size distribution, D90: 45 µm
[2]; Table 10
  Particle size distribution, D10: 3 μm
[2]; [8]
  Particle size distribution, D50: 14 μm
  Particle size distribution, D90: 45 μm
[2]; [9]
  Particle size distribution, D50: 13 μm
  Particle size distribution, D90: 43 μm
[2]; [10]
  Particle size distribution, D50: 13 μm
  Particle size distribution, D90: 44 μm
[2]; [11]
  Particle size distribution, D50: 14 μm
  Particle size distribution, D90: 48 μm
[2]; [12]
  Particle size distribution, D50: 13 μm
  Particle size distribution, D90: 45 μm
